Source: ChEMBL document CHEMBL4152259, “Benzoxazinone-containing 3,5-dimethylisoxazole derivatives as BET bromodomain inhibitors for treatment of castration-resistant prostate cancer” (Eur J Med Chem, 2018)
pIC50, pKd: −log10 of the molar value. Active and inactive are the calls of the source. The rule behind the calls is not given here.

Assays:
VCaP [1] = test: Antiproliferative activity against human VCaP cells treated at 12 hrs post cell seeding measured at 72 to 144 hrs post cell seeding by Cell-Titer Glo assay; assay type: functional, cell-based
[2] = molecular target: T1, Bromodomain-containing protein 9 (Homo sapiens) (UniProt Q9H8M2); test: Binding affinity to His6-tagged human BRD9 (L14 to Q134 residues) expressed in Escherichia coli BL21(DE3) assessed as change in melting temperature at 200 uM by SYPRO orange dye based fluorescence assay
T1 sequence (whole entry): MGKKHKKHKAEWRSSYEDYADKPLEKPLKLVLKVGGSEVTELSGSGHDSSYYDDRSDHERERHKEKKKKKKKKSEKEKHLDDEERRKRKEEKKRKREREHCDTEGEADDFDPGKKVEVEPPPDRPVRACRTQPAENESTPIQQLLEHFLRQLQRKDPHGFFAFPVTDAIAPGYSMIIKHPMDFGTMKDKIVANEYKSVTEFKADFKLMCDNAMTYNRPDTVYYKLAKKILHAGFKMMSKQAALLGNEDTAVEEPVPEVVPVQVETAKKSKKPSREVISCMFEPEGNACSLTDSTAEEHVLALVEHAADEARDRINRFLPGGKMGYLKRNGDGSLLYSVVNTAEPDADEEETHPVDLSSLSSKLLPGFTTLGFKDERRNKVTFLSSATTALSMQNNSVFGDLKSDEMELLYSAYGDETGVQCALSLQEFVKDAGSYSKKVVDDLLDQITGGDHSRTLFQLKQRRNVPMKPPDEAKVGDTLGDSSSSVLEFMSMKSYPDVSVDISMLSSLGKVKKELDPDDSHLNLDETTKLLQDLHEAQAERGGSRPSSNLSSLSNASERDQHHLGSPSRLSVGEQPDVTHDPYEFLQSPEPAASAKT

CWR22R [3] = test: Antiproliferative activity against human 22Rv1 cells treated at 12 hrs post cell seeding measured at 72 to 144 hrs post cell seeding by Cell-Titer Glo assay; assay type: functional, cell-based
Homo sapiens [4] = organism: Homo sapiens; test: Inhibition of BET bromodomain in human LNCAP cells harboring pPSA-Luc/pRenialla-Luc assessed as reduction in PSA mRNA level after 24 hrs by luciferase reporter gene assay; assay type: cell-based
HT-29 = test: Antiproliferative activity against human HT-29 cells treated at 12 hrs post cell seeding measured at 72 to 144 hrs post cell seeding by Cell-Titer Glo assay; assay type: functional, cell-based
Homo sapiens [5] = organism: Homo sapiens; test: Inhibition of BET bromodomain in human 22Rv1 cells assessed as reduction in TMPRSS2 mRNA level at 1 uM after 48 hrs by qPCR assay; assay type: cell-based
Hs-578T = test: Antiproliferative activity against human Hs578T cells treated at 12 hrs post cell seeding measured at 72 to 144 hrs post cell seeding by Cell-Titer Glo assay; assay type: functional, cell-based
DU-145 = test: Antiproliferative activity against human DU145 cells treated at 12 hrs post cell seeding measured at 72 to 144 hrs post cell seeding by Cell-Titer Glo assay; assay type: functional, cell-based
U2OS = test: Antiproliferative activity against human U2OS cells treated at 12 hrs post cell seeding measured at 72 to 144 hrs post cell seeding by Cell-Titer Glo assay; assay type: functional, cell-based
CWR22R [6] = test: Anti-invasive activity against human 22Rv1 cells at 1 uM after 48 hrs by crystal violet staining based matrigel-mediated Boyden chamber assay relative to control; assay type: functional
[7] = molecular target: Bromodomain-containing protein 4 (Homo sapiens, UniProt O60885); test: Binding affinity to His6-tagged human BRD4 bromodomain-1 (N44 to E168 residues) expressed in Escherichia coli BL21(DE3) by ITC
HFL1 = test: Antiproliferative activity against HFL1 cells treated at 12 hrs post cell seeding measured at 72 to 144 hrs post cell seeding by Cell-Titer Glo assay; assay type: cell-based; settings: Homo sapiens
[8] = Cmax in Sprague-Dawley rat at 2 mg/kg, iv administered as single dose; assay type: ADME, organism-based; set-up: dose 2 mg/kg, route intravenous; settings: in vivo
A549 = test: Antiproliferative activity against human A549 cells treated at 12 hrs post cell seeding measured at 72 to 144 hrs post cell seeding by Cell-Titer Glo assay; assay type: functional, cell-based
[9] = Oral bioavailability in Sprague-Dawley rat at 10 mg/kg administered as single dose; assay type: ADME, organism-based; settings: in vivo
Homo sapiens [10] = organism: Homo sapiens; test: Inhibition of BET bromodomain in human 22Rv1 cells assessed as full length AR protein level at 16 uM after 48 hrs by Western blot assay (reference value: 1); assay type: cell-based
Homo sapiens [11] = organism: Homo sapiens; test: Inhibition of BET bromodomain in human 22Rv1 cells assessed as full length AR protein level at 1 uM after 48 hrs by Western blot assay (reference value: 1); assay type: cell-based
Homo sapiens [12] = organism: Homo sapiens; test: Inhibition of BET bromodomain in human LNCAP cells assessed as reduction in ERG mRNA level at 1 uM after 48 hrs by qPCR assay; assay type: cell-based
[13] = Half life in Sprague-Dawley rat at 2 mg/kg, iv administered as single dose; assay type: ADME, organism-based; settings: in vivo
MV4-11 = test: Antiproliferative activity against human MV4-11 cells treated at 12 hrs post cell seeding measured at 72 to 144 hrs post cell seeding by Cell-Titer Glo assay; assay type: functional, cell-based
MCF7 = test: Antiproliferative activity against human MCF7 cells treated at 12 hrs post cell seeding measured at 72 to 144 hrs post cell seeding by Cell-Titer Glo assay; assay type: functional, cell-based
VCaP [14] = test: Inhibition of BET bromodomain in human VCaP cells assessed as reduction in full length AR mRNA level at 1 uM after 48 hrs by qPCR assay; assay type: cell-based
CWR22R [15] = test: Antitumor activity against human 22Rv1 cells xenografted in C.B-17/IcrHsd-Prkdc scid mouse assessed as tumor growth inhibition at 50 mg/kg, ip administered 5 times per week relative to control; assay type: functional; settings: 22Rv1, ip, read-out: TGI
VCaP [16] = test: Inhibition of BET bromodomain in human VCaP cells assessed as reduction in ERG mRNA level at 1 uM after 48 hrs by qPCR assay; assay type: cell-based
NCI-H1975 = test: Antiproliferative activity against human NCI-H1975 cells treated at 12 hrs post cell seeding measured at 72 to 144 hrs post cell seeding by Cell-Titer Glo assay; assay type: functional, cell-based
CWR22R [17] = test: Antimigratory activity against human 22Rv1 cells assessed as inhibition of wound closure at 1 uM after 48 hrs by bright field microscopic method; assay type: functional, cell-based
HeLa = test: Antiproliferative activity against human HeLa cells treated at 12 hrs post cell seeding measured at 72 to 144 hrs post cell seeding by Cell-Titer Glo assay; assay type: functional, cell-based
Homo sapiens [18] = organism: Homo sapiens; test: Selectivity ratio of IC50 for inhibition of His6-tagged human CREBBP (R1081 to G1197 residues) expressed in Escherichia coli BL21(DE3) by AlphaScreen assay to IC50 for inhibition of His6-tagged human BRD4 bromodomain-1 (N44 to E168 residues) expressed in Escherichia coli BL21(DE3) by AlphaScreen assay
[19] = Half life in Sprague-Dawley rat at 10 mg/kg, po administered as single dose; assay type: ADME, organism-based; settings: in vivo
PC-3 = test: Antiproliferative activity against human PC3 cells treated at 12 hrs post cell seeding measured at 72 to 144 hrs post cell seeding by Cell-Titer Glo assay; assay type: functional, cell-based
Homo sapiens [20] = organism: Homo sapiens; test: Inhibition of BET bromodomain in human LNCAP cells assessed as reduction in c-Myc mRNA level at 1 uM after 48 hrs by qPCR assay; assay type: cell-based

SMILES	pIC50 (VCaP [1])	ΔTm [2] [°C]	pIC50 (CWR22R [3])	pIC50 (HT-29)	pIC50 (Hs-578T)	pIC50 (DU-145)	pIC50 (U2OS)	pKd [7]	pIC50 (HFL1)	pIC50 (A549)	pIC50 (MV4-11)	pIC50 (MCF7)	pIC50 (NCI-H1975)	pIC50 (HeLa)	pIC50 (PC-3)	further results
Cc1noc(C)c1-c1ccc2c(c1)OC(c1ccccc1F)C(=O)N2 (stereo not drawn)	6.59	-0.3	5.69	–	–	–	–	–	–	–	–	–	–	–	–	–
Cc1noc(C)c1-c1ccc2c(c1)O[C@H](CC1CC1)C(=O)N2	6.34	3.6	6.00	5.86	5.72	5.09	4.95	6.96	4.70	5.27	6.24	5.74	5.01	4.73	4.97	inhibition (Homo sapiens [4]): Dose-dependent effect; inhibition (Homo sapiens [5]): Active; Activity (CWR22R [6]): 57%; Cmax [8]: 1350 ng/mL; bioavailability [9]: 29.3%; fold change (FC) (Homo sapiens [10]): 0.09; fold change (FC) (Homo sapiens [11]): 0.43; inhibition (Homo sapiens [12]): Active; half-life [13]: 48 min; inhibition (VCaP [14]): Active; inhibition in vivo at 50 mg/kg (CWR22R [15]): 70%; inhibition (VCaP [16]): Active; inhibition (CWR22R [17]): Active; Ratio IC50 (Homo sapiens [18]): 25; half-life [19]: 42 min; inhibition (Homo sapiens [20]): Active
Cc1noc(C)c1-c1ccc2c(c1)O[C@H](CC1CC1)C(=O)N2CCN1CCOCC1	5.95	5.1	5.55	–	–	–	–	–	–	–	–	–	–	–	–	–
Cc1noc(C)c1-c1ccc2c(c1)OC(c1ccccc1)C(=O)N2 (stereo not drawn)	6.11	2.4	5.57	–	–	–	–	–	–	–	–	–	–	–	–	–
Cc1noc(C)c1-c1ccc2c(c1)O[C@H](CC(C)C)C(=O)N2	6.47	2.4	6.24	6.22	5.95	5.13	4.89	7.09	4.52	5.22	6.77	5.94	4.48	4.39	4.98	–
CCN1C(=O)[C@@H](CC2CC2)Oc2cc(-c3c(C)noc3C)ccc21	6.11	3.7	5.29	–	–	–	–	6.48	–	–	–	–	–	–	–	–
Cc1sc2c(c1C)C(c1ccc(Cl)cc1)=N[C@@H](CC(=O)OC(C)(C)C)c1nnc(C)n1-2	7.92	-2.4	7.15	7.70	6.80	5.60	5.79	–	6.54	5.78	6.80	6.70	5.91	5.42	5.52	–
